This is an account of results in patent publication US20050233413A1, “Neuroprotective polypeptides and methods of use” (priority 2002, published 2005).

Like-named read-outs stand apart in the source and are kept apart here. Where no end group is shown, it is not given here. [ ]: non-standard residue; d: D form. pS = N[C@@H](COP(=O)(O)O)C(=O)O

What is called IC50 is the concentration that gives 50% inhibition.

What all share (assay type): cell-based
Data set [1] deals with Aβ and four FAD genes (V642I-APP, NL-APP, M146L-PS1, and N141I-PS2). The conditions noted are these: Table 5, marked *. From the text: (§1) F11 cells, the hybrid of a rat embryonic-day-13 primary cultured primary neuron and a mouse neuroblastoma cell, are one of the best models for primary cultured neurons as they carry representative characteristics of primary neurons, such as generation of action potentials without differentiation by NGF [22]. They have been used in various studies of is neuronal functions. Using these cells, the underlying mechanisms for cytotoxicity by V642I-APP have well been analyzed. Cytotoxicity by V642 mutants of APP has also been confirmed in multiple different systems. F11 cells were grown in Ham's F-12 (GibcoBRL, Gaithersburg, Md.) plus 18% fetal bovine serum (FBS; Hyclone, Logan, Utah) and antibiotics, as described previously. F11 cells (7×10^4 cell/well in a 6-well plate cultured in Ham's F-12 plus 18% FBS for 12-16 hr) were transfected with plasmids encoding FAD genes by lipofection [FAD cDNA 2 μg, LipofectAMINE 4 μl, PLUS reagent 8 μl (GibcoBRL)] in the absence of serum for 3 hr, and were incubated with Ham's F-12 plus 18% FBS for 2 hr. Then, culture media were changed to Ham's F-12 plus 10% FBS with or without HN peptides, and cells were cultured for an additional 67 hr. Seventy-two hr after transfection, cell mortality was measured by Trypan blue exclusion assay, performed as follows. Cells were suspended by pipetting gently, and 50 μl of 0.4% (finally 0.08%) Trypan blue solution (Sigma, St Louis, Mo.) was mixed with 200 μl of the cell suspension at room temperature. Stained cells were counted within 3 min after the mixture with Trypan blue solution.
(§2) The primary culture of mouse cortical neurons was performed in poly-L-lysine-coated 24-well plates or 96-well plates (Sumitomo Bakelite, Akita, Japan), in the absence of serum and the presence of N2 supplement, as described previously. The purity of neurons by this method was >98%. Prepared neurons (for neurons seeded in 96-well plates: 2.5×10^4 or 5×10^4 cells/well, 100 μl culture medium/well; for neurons seeded in 24-well plates: 1.25×10^5 cells/well, 250 μl culture medium/well) were preincubated with or without 10 μM (in case for the experiment with 10 μM HN) synthetic HN for 16 hr, and treated with 25 μM Aβ in the presence or absence of 10 μM HN for 72 hr, respectively. As primary neurons were vulnerable to transient dryness during medium exchange, we treated neurons with 25 μM Aβ as follows. First, a half volume (50 μl for neurons in 96-well plates; 125 μl for neurons in 24-well plates) of old medium was discarded. Then, the same volume (50 μl for neurons in 96-well plates; 125 μl for neurons in 24-well plates) of prewarned fresh medium containing 10 μM HN and 50 μM Aβ (Aβ was directly resolved) was added to the culture. The Aβ peptides used at 25 μM to induce neurotoxicity formed aggregation in the medium during the cell culture at 37° C. for 72 hr. as described. The WST-8 cell viability assay was performed, using Cell Counting Kit-8 (Wako Pure Chemical Industries, Osaka, Japan), as described previously.
(§3) Calcein assay was performed with Calcein-AM {3′,6′-di-(O-acetyl)-2′,7′-bis [N,N-bis(carboxymethyl)aminomethyl] fluorescein, tetraacetoxymethyl ester; Dojindo}, as described previously. These assays were simultaneously performed in the experiments with neurons seeded in 96-well plates, as follows. Seventy-two hours after Aβ treatment, cells were added with the mixture of 10 μl WST-8 solution and 1 μl of 600 μM Calcein-AM. After 2 hr incubation in a CO2 incubator at 37° C., WST-8 absorbance was measured as OD450. After exchanging the medium to PBS to lower the background, Calcein-specific fluorescence (ex=485 nm, em=535 nm) was observed by fluorescence microscopy or measured by a spectrofluorometer (Wallac1420 ARVOsx Multi Label Counter). […]

The test system of data set [2] is F11 cells transfected with V642I-APP cDNA. As to the kind of experiment: F11 cell death by V642I-APP transfection (Trypan blue exclusion). To be noted: for cytotoxicity by V642I-APP in the presence of peptide (% dead cells of total cells): each peptide 10 μM, V642I-APP alone 53.7±1.2%, without transfection 9.0±1.4; for % dead cells of total cells: 72 hr after transfection.
Text: (§4) In one assay, transfection with V642I-APP causes cell death in F11 neuronal hybrid cells. In the other, treatment with Aβ peptides causes cell death in primary cultured cortical neurons.
as §1

The test system of data set [3] is primary cultured neurons treated with 25 μM Aβ1-43. The conditions noted are these: for Calcein fluorescence, percentage of neurons without treatment: 72 hours, means±S.D. As to the method: as §4, §2
Calcein assay was performed with Calcein-AM {3′,6′-di-(O-acetyl)-2′,7′-bis [N,N-bis(carboxymethyl)aminomethyl] fluorescein, tetraacetoxymethyl ester; Dojindo}, as described previously. These assays were simultaneously performed in the experiments with neurons seeded in 96-well plates, as follows. Seventy-two hours after Aβ treatment, cells were added with the mixture of 10 μl WST-8 solution and 1 μl of 600 μM Calcein-AM. After 2 hr incubation in a CO2 incubator at 37° C., WST-8 absorbance was measured as OD450. After exchanging the medium to PBS to lower the background, Calcein-specific fluorescence (ex=485 nm, em=535 nm) was observed by fluorescence microscopy or measured by a spectrofluorometer (Wallac1420 ARVOsx Multi Label Counter). Most cell viability data using Calcein assay and WST-8 assay were obtained from neurons seeded at 5×10^4 cells/well in 96-well plates (high-density neurons) and confirmed by both assays with the cells seeded at 2.5×10^4 cells/well (low-density neurons).
Some experiments for Calcein assay were performed with neurons seeded in 24-well plates. […] In most experiments using primary neurons, four independent experiments were performed and the means? S. D. of the results were discussed.

The test system of a further data set is Aβ and V642I-APP.
Text: as §1, §2, §3

[4] abbreviates: V642I-APP + 10 pM peptide, means±S.D., V642I-APP alone 52.9 ± 1.1.
Setting [5] is: 25 μM Aβ1-43 + 10 pM peptide, Aβ alone 8.9 ± 0.8.

Take “MAPRGF(D-Ser)CLLLLTSEIDLPVKRRA [D-Ser7 HN]”: the “Full protection (minimal concentration that exerted full cytoprotection)” value in data set [1] is listed as “˜10 μM”.
On to “EFLIVIKSMAPRGFSCLLLLTGEIDLPVKKKK [EF-HNG-KKK]”, for which the half-inhibitory concentration (IC50) was ~0.1 nM in data set [2] and ~1 nM in data set [3]. For the same compound, the “concentration of full cytoprotection / complete suppression against V642I-APP” value in data set [2] (F11 cells) is 10 nM. Also, the “concentration of full neuroprotection against Aβ1-43” value in data set [3] (25 μM Aβ1-43) lay within 10 to 100 nM. For the same compound, the “suppression of Aβ neurotoxicity in the presence of 100 μM EFLIVIKS” value in data set [3] (25 μM Aβ1-43, EF-HN and EF-HNG at 10 μM, WST-8 and Calcein assays) is listed as “could not suppress Aβ neurotoxicity at all”. In addition, the “Full protection (minimal concentration that exerted full cytoprotection)” value in the data set on Aβ and V642I-APP (Table 5, marked **) was “˜10 nM”. Moreover, the “potency relative to EF-HNG” value with Aβ and V642I-APP (times less potent than EF-HNG) is on record as ~10 times.
On to MAPRGFSCLLLLTEEIDLPVKRRA [(S14E)HN], for which the “cytotoxicity by V642I-APP in the presence of peptide (% dead cells of total cells)” value (from here on “cytotoxicity … (% dead cells of total cells)”) in data set [2] is given as 45.0±1.9%.
Still for that read-out and setting: under MAPRGFSCLLLLTTEIDLPVKRRA [(S14T)HN] stands 54.0±2.3%; under `CC[C@H](C)[C@H](NC(=O)[C@H](CCC(=O)O)NC(=O)[C@H](CO)NC(=O)[C@@H](NC(=O)[C@H](CC(C)C)NC(=O)[C@H](CC(C)C)NC(=O)[C@H](CC(C)C)NC(=O)[C@H](CC(C)C)NC(=O)[C@H](CS)NC(=O)[C@H](CO)NC(=O)[C@H](Cc1ccccc1)NC(=O)CNC(=O)[C@H](CCCNC(=N)N)NC(=O)[C@@H]1CCCN1C(=O)[C@H](C)NC(=O)[C@@H](N)CCSC)[C@@H](C)O)C(=O)N[C@@H](CC(=O)O)C(=O)N[C@@H](CC(C)C)C(=O)N1CCC[C@H]1C(=O)N[C@H](C(=O)N[C@@H](CCCCN)C(=O)N[C@@H](CCCNC(=N)N)C(=O)N[C@@H](CCCNC(=N)N)C(=O)N[C@@H](C)C(=O)O)C(C)C` [HN, reference compound], 11.0±0.1%.
On to “MAPRGFSALLLLTSEIDLPVKRRA [HNA, reference compound]”, for which the “cytoprotective action against V642I-APP (in words)” value in data set [2] (F11 cells) was “completely inactive”. Besides, the “neuroprotective action against Aβ1-43 (in words)” value in data set [3] (25 μM Aβ1-43, primary neurons) is “completely inactive”. For the same compound, the Full protection result in data set [1] is “NE* (the corresponding peptide had no cytoprotective effect at 10 μM)”. Besides, the IC50 in data set [1] (read-out: IC50) was > 10000 nM.
For the compound MAPRGFSCLLLLTREIDLPVKRRA [(S14R)HN], in data set [2], the “cytotoxicity … (% dead cells of total cells)” value is 52.6±1.0%.
Take “PRGFACLLLLTGEIDLP [S7A HNG17, PRGFACLLLLTGEIDLP]”: in data set [3], the 50% inhibitory concentration (IC50) was ~1 nM. The “concentration of full neuroprotection against Aβ1-43” value in data set [3] (25 μM Aβ1-43) is reported as “about 10 nM”. Moreover, the “Full protection (minimal concentration that exerted full cytoprotection)” value in the data set with Aβ and V642I-APP (Table 5, marked **) is on record as “˜10 nM”.
Take “MAPRGF(p-S)CLLLLTSEIDLPVKRRA (MAPRGF[pS]CLLLLTSEIDLPVKRRA) [P-S7 HN]”: the “% dead cells of total cells” value in data set [2] (setting [4]) worked out at 53.7 ± 0.8%; in data set [2] (V642I-APP + 100 pM peptide), 53.1 ± 1.7%; in data set [2] (V642I-APP + 1 nM peptide), 54.8 ± 1.6%; in data set [2] (V642I-APP + 10 nM peptide), 54.1 ± 1.4%; in data set [2] (V642I-APP + 10 μM peptide), 11.6 ± 1.1 %. Besides, the “Calcein fluorescence, percentage of neurons without treatment” value is listed as 9.0 ± 0.9% in data set [3] (setting [5]); 8.7 ± 0.8% in data set [3] (25 μM Aβ1-43 + 100 pM peptide); 8.8 ± 0.9% in data set [3] (25 μM Aβ1-43 + 1 nM peptide); 8.8 ± 0.6% in data set [3] (25 μM Aβ1-43 + 10 nM peptide); 10.5 ± 0.9% in data set [3] (25 μM Aβ1-43 + 100 nM peptide); 84.2 ± 6.8 % in data set [3] (25 μM Aβ1-43 + 1 μM peptide). For the same compound, the “Calcein fluorescence, percentage of neurons without treatment” value in data set [3] (25 μM Aβ1-43 + 10 μM peptide) is reported as 103.3 ± 2.8 %. Further, the “Full protection (minimal concentration that exerted full cytoprotection)” value in data set [1] was “˜10 μM”.
In the case of “MAPRGFSCLLLLT(p-S)EIDLPVKRRA (MAPRGFSCLLLLT[pS]EIDLPVKRRA) [P-S14 HN, p-S is phosphorylated L-Ser]”, the “% dead cells of total cells” value in data set [2] (setting [4]) came to 56.5 ± 4.1%; in data set [2] (V642I-APP + 100 pM peptide), 56.3 ± 2.7%; in data set [2] (V642I-APP + 1 nM peptide) it was 54.3 ± 1.2%; in data set [2] (V642I-APP + 10 nM peptide) it was 53.4 ± 2.0%; in data set [2] (V642I-APP + 100 nM peptide) it was 41.8 ± 1.8 %. Also, the “Calcein fluorescence, percentage of neurons without treatment” value in data set [3] (setting [5]) was 8.6 ± 0.3%; in data set [3] (25 μM Aβ1-43 + 100 pM peptide) it was 8.6 ± 0.4%; in data set [3] (25 μM Aβ1-43 + 1 nM peptide), 8.9 ± 0.1%; in data set [3] (25 μM Aβ1-43 + 10 nM peptide) it was 8.6 ± 0.3%; in data set [3] (25 μM Aβ1-43 + 100 nM peptide) it was 8.6 ± 0.1%; in data set [3] (25 μM Aβ1-43 + 1 μM peptide), 85.8 ± 4.1 %. Further, the “Calcein fluorescence, percentage of neurons without treatment” value in data set [3] (25 μM Aβ1-43 + 10 μM peptide) is 104.1 ± 1.7 %. Moreover, in the data set with Aβ and V642I-APP (Table 5, marked **), the “Full protection (minimal concentration that exerted full cytoprotection)” value is recorded as “˜10 μM”.
Consider “(S14P)HN: HN derivative with Pro substitution at Ser14”, for which the “cytotoxicity … (% dead cells of total cells)” value in data set [2] is reported as 12.5±1.0%.
Same read-out and setting: the same measure for MAPRGFSCLLLLTWEIDLPVKRRA [(S14W)HN]: 54.5±4.2%.
“EFLIVIKSMAPRGFSALLLLTSEIDLPVKRRA [EF-HNA]”: in the data set with Aβ and V642I-APP (Table 5, marked **), the Full protection entry is “NE** (the corresponding peptide had no cytoprotective effect at 10 μM)” and the IC50 is > 10000 nM.
